# Molecular target: HPK1 (Homo sapiens (Human), UniProt Q92918)
# Assay: HPK1 biochemical enzyme assay (microfluidic mobility shift assay)
# Conditions: 1.5 nM HPK1, ATP 1 mM final, 30 min preincubation, 60 min at RT, Caliper EZ Reader; read-out: HPK1 1000UMATP caliper IC50
# Method in brief: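 Mobility shift readout of HPK1 activity after a 60 min RT reaction with 1 mM ATP, 1 μM substrate and 5 mM MgCl2. Enzyme/substrate mix was first exposed to compounds for 30 min, using ten-point curves topping at 3 μM final.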
# Chain of HPK1 (Q92918 whole entry): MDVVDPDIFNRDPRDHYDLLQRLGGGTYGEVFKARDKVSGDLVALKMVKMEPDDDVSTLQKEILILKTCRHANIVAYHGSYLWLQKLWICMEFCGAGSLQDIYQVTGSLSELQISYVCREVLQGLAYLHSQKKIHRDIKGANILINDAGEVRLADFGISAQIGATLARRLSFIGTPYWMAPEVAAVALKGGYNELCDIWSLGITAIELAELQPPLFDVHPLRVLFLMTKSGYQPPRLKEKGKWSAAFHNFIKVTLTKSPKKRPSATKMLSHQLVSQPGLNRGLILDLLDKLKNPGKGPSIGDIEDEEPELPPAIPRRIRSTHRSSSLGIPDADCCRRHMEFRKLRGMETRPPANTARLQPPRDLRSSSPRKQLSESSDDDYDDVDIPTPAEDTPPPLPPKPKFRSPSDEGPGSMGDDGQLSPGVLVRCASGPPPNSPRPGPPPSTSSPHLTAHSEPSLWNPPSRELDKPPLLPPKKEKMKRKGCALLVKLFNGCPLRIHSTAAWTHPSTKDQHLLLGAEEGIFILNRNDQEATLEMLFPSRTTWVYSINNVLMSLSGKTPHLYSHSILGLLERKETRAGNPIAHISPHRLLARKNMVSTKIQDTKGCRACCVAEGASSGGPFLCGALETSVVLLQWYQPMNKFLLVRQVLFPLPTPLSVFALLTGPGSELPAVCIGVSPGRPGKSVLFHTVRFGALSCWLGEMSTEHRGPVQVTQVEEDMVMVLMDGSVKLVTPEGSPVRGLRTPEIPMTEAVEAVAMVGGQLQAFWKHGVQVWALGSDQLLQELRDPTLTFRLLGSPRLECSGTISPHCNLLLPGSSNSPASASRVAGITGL
row,IC50,Compound
1,< 100 nM,"Cc1c[nH]c2nccc(-c3ccc(Nc4ccc(N5CCN(C)CC5)cn4)c4c3CNC4=O)c12 [I-42, 7-[[5-(4-methylpiperazin-1-yl)-2-pyridyl]amino]-4-(3-methyl-1H-pyrrolo[2,3-b]pyridin-4-yl)isoindolin-1-one]"
2,100 to 1000 nM,"CC1COc2c(-c3ccc(Nc4ccc(N5CCN(C)CC5)cn4)c4c3CNC4=O)cnn2C1 (stereo in doubt) [I-259, (R)-4-(6-methyl-6,7-dihydro-5H-pyrazolo[5,1-b][1,3]oxazin-3-yl)-7-((5-(4-methylpiperazin-1-yl)pyridin-2-yl)amino)isoin-dolin-1-one]"
3,100 to 1000 nM,"N#Cc1ccn2c(-c3ncc(Nc4ccc(N5CCOCC5)cn4)c4c3CNC4=O)cnc2c1 [I-189, 3-[7-[(5-morpholino-2-pyridyl)-amino]-1-oxo-2,3-dihydropyrrolo [3,4-c]pyridin-4-yl]imidazo[1,2-a]pyridine-7-carbonitrile]"
4,< 100 nM,"O=C1NCc2c(-c3cnc4cnccn34)ccc(Nc3ccc(N4CC[C@H](F)[C@@H](O)C4)cn3)c21 [I-435, 7-((5-((3S,4S)-4-fluoro-3-hydroxypiperidin-1-yl)pyridin-2-yl)amino)-4-(imidazo[1,2-a]pyrazin-3-yl)isoindolin-1-one]"
5,< 100 nM,"COC1CN(Cc2nc(Nc3ccc(-c4cnc5cc(F)ccn45)c4c3C(=O)NC4)ccc2[C@H]2CCOC2)C1 [I-548, (R)-4-(7-fluoroimidazo [1,2-a]pyridin-3-yl)-7-((6-((3-methoxyazet-idin-1-yl)methyl)-5-(tetrahydrofuran-3-yl)pyridin-2-yl)amiiio)isoin-dolin-1-one]"
6,< 100 nM,"O=C1NCc2c(-c3cnc4c(F)cccn34)ccc(Nc3ccc(N4CCOCC4)cn3)c21 [I-156, 4-(8-fluoroimidazo [1,2-a]pyridin-3-yl)-7-[(5-morpholino-2-pyridyl)amino] isoindolin-1-one]"
7,< 100 nM,"C[C@@H](c1ccc(Nc2ccc(-c3cnc4cc(F)ccn34)c3c2C(=O)NC3)nc1)N1CCOCC1 (single isomer, unassigned) [I-640]"
8,< 100 nM,"CN(C)C1(C2CN(c3ccc(Nc4ccc(-c5cnc6cc(F)ccn56)c5c4C(=O)NC5)nc3)CCO2)CC1 (stereo in doubt) [I-687, (S)-7-((5-(2-(1-(dimethylami-no)cyclopropyl)morpholino)py-ridin-2-yl)amino)-4-(7-fluoroimidazo [1,2-a]pyridin-3-yl)isoindolin-1-one]"
9,100 to 1000 nM,"COC1CCN(c2ccc(Nc3cnc(-c4cnc5c(F)cccn45)c4c3C(=O)NC4)nc2)CC1 [I-455, 4-(8-fluoroimidazo [1,2-a]pyridin-3-yl)-7-[[5-(4-methoxy-1-piperidyl)-2-pyridyl]amino]-2,3-dihydropyrrolo [3,4-c]pyridin-1-one]"
10,< 100 nM,"Cn1ccc2c(-c3ncc(Nc4ccc([C@H]5CCOC5)c(CN5CC[C@H](O)C5)n4)c4c3CNC4=O)ccnc21 [I-812, 7-((6-(((S)-3-hydroxypyrroli-din-1-yl)methyl)-5-((R)-THF-3-yl)pyridin-2-yl)amino)-4-(1-methyl-1H-pyrrolo[2,3-b]pyridin-4-yl)-2,3-dihydro-1H-pyrrolo[3,4-c]pyridin-1-one]"
11,< 100 nM,"C[C@H]1CCn2ncc(-c3ccc(Nc4ccc(N5CCN(C)CC5)cn4)c4c3CNC4=O)c2C1 [I-264, (S)-4-(5-methyl-4,5,6,7-tetrahydropyra-zolo[1,5-a]pyridin-3-yl)-7-((5-(4-methylpiperazin-1-yl)pyridin-2-yl)amino)isoin-dolin-1-one]"
12,< 100 nM,O=C1NCc2c(-c3cnc4cc(F)ccn34)ccc(Nc3ccc(N4CCC(O)(CN5CCCC5)CC4)cn3)c21 [I-387]
13,< 100 nM,"CCN(CC)Cc1nc(Nc2ccc(-c3cnc4cc(F)ccn34)c3c2C(=O)NC3)ccc1[C@H]1CCOC1 [I-510, (R)-7-((6-((diethylamino)-methyl)-5-(tetrahydrofuran-3-yl)pyridin-2-yl)amino)-4-(7-fluoroimidazo [1,2-a]pyridin-3-yl)isoindolin-1-one]"
